ChEMBL document CHEMBL1201862, “PubChem BioAssay data set” (2004)
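The compound was tested at five concentrations on cells cultured in 96-well plates, with a 48-hour exposure period. GI50 is the concentration that inhibits growth by half.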 Activity calls are given as the source filed them. Cut-off read from the data, not from the text of the source: active = GI50 up to about 1.1 µM and inactive = higher.

What was measured:
Test in all cases: NCI anticancer screen, dose series, 48 h
MCF7 = test system: MCF7
HOP-92 = test system: HOP-92
EKVX = test system: EKVX
IGROV-1 = test system: IGROV-1
COLO 205 = test system: COLO 205
SW-620 = test system: SW-620
LOX IMVI = test system: LOX IMVI
HCC 2998 = test system: HCC 2998
HT-29 = test system: HT-29
MDA-MB-435 = test system: MDA-MB-435
PC-3 = test system: PC-3
OVCAR-4 = test system: OVCAR-4
LXFL 529 = test system: LXFL 529
RXF 393 = test system: RXF 393
786-0 = test system: 786-0
OVCAR-3 = test system: OVCAR-3
M14 = test system: M14
UACC-257 = test system: UACC-257
SF-268 = test system: SF-268
T47D = test system: T47D

Compound | GI50 (MCF7) | GI50 (HOP-92) | GI50 (EKVX) | GI50 (IGROV-1) | GI50 (COLO 205) | GI50 (SW-620) | GI50 (LOX IMVI) | GI50 (HCC 2998) | GI50 (HT-29) | GI50 (MDA-MB-435) | GI50 (PC-3) | GI50 (OVCAR-4) | GI50 (LXFL 529) | GI50 (RXF 393) | GI50 (786-0) | GI50 (OVCAR-3) | GI50 (M14) | GI50 (UACC-257) | GI50 (SF-268) | GI50 (T47D)
CCOC(=O)Nc1nc2cc(Cn3cccc3)ccc2[nH]1 | 1.7 µM (inactive) | 32.2 µM (inactive) | 27.7 µM (inactive) | 1.85 µM (inactive) | 1.84 µM (inactive) | 0.564 µM (active) | 2.55 µM (inactive) | 2.47 µM (inactive) | 0.65 µM (active) | 0.123 µM (active) | 0.399 µM (active) | 16.2 µM (inactive) | 4.16 µM (inactive) | 4.03 µM (inactive) | 1.09 µM (active) | 1.13 µM (inactive) | 1.65 µM (inactive) | 3.82 µM (inactive) | 8.73 µM (inactive) | 
C=C(CN(C)C)C(=O)c1ccccc1 |  | 2.06 µM (inactive) | 21.8 µM (inactive) | 18.8 µM (inactive) | 1.46 µM (inactive) | 1.69 µM (inactive) | 7.93 µM (inactive) | 18 µM (inactive) | 10.2 µM (inactive) | 14.1 µM (inactive) | 16 µM (inactive) | 11.4 µM (inactive) | 2.15 µM (inactive) | 2.33 µM (inactive) | 3.3 µM (inactive) | 3.63 µM (inactive) | 2.31 µM (inactive) | 11.5 µM (inactive) | 24.5 µM (inactive) | 2.25 µM (inactive)
C=C(CN(C)C)C(=O)c1ccc(Oc2ccccc2)cc1 | 3.3 µM (inactive) | 2.18 µM (inactive) | 16.9 µM (inactive) | 14.9 µM (inactive) | 1.04 µM (active) | 1.31 µM (inactive) | 5.57 µM (inactive) | 17.5 µM (inactive) | 7.82 µM (inactive) | 3.85 µM (inactive) | 3.98 µM (inactive) | 6.19 µM (inactive) | 2.2 µM (inactive) | 2.4 µM (inactive) | 2.15 µM (inactive) | 4.86 µM (inactive) | 1.76 µM (inactive) | 8.36 µM (inactive) | 14 µM (inactive) | 2.7 µM (inactive)
CCCc1c(C(=O)OCC)[nH]c(C(=O)CCC(=O)c2[nH]c(C(=O)OCC)c(CCC)c2C(=O)OCC)c1C(=O)OCC |  | > 100 µM (inactive) | > 100 µM (inactive) | > 100 µM (inactive) | > 100 µM (inactive) | > 100 µM (inactive) | > 100 µM (inactive) | > 100 µM (inactive) | > 100 µM (inactive) |  |  | 48.3 µM (inactive) | > 100 µM (inactive) | 70.5 µM (inactive) | 54.6 µM (inactive) | 68.5 µM (inactive) | > 100 µM (inactive) | > 100 µM (inactive) | > 100 µM (inactive) | 
O=C(Cc1ccccc1)NN1C(=O)C(Cl)C1c1ccccc1Cl (stereo not given) |  | > 100 µM (inactive) | > 100 µM (inactive) | 39 µM (inactive) | > 100 µM (inactive) | 34.4 µM (inactive) | 24.3 µM (inactive) | > 100 µM (inactive) | > 94.2 µM (inactive) |  |  | > 100 µM (inactive) | 33.6 µM (inactive) | 48.8 µM (inactive) | 71.8 µM (inactive) | > 62.7 µM (inactive) | > 100 µM (inactive) | > 70.6 µM (inactive) | > 70.1 µM (inactive) | 
